Measured values from publication PMC7280144 (Acta Pharmaceutica Sinica. B, 2020).

Molecular target: T1, ATP-binding cassette subfamily G member 2 (ABCG2) (Homo sapiens, UniProt Q9UNQ0)
T1 sequence (Q9UNQ0 1-655): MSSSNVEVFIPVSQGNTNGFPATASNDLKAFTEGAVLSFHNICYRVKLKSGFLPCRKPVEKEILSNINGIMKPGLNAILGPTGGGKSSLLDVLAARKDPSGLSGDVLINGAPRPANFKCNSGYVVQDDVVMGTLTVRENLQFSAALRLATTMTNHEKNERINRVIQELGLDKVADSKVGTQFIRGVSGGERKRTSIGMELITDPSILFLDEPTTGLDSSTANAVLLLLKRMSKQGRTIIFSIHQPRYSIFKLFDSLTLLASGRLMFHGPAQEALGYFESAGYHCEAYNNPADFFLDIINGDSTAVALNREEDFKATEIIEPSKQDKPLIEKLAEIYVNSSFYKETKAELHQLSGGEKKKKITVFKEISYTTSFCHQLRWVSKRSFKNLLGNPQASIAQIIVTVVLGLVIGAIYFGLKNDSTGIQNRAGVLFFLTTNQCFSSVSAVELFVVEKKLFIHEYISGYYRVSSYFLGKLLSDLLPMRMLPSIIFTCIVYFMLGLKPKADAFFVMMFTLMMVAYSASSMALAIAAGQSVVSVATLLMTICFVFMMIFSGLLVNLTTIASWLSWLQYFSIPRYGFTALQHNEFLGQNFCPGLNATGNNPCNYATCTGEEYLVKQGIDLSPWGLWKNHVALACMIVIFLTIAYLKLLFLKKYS
Experiment: competition of […]-IAAP photoaffinity labeling in crude membranes

C=CC(=O)Nc1cccc(Nc2nc(Nc3ccc(N4CCN(C(C)=O)CC4)cc3OC)ncc2C(F)(F)F)c1 [rociletinib]
competition of [125I]-IAAP photoaffinity labeling in crude membranes; also vanad: ~ 5 μmol/L
